Test results from the supplement of paper PMC10307832.

Tests used:
Assay in all cases: relative viability (nuclei count vs DMSO), 5 days (fraction); higher = more cells survive
[1] = compound: CC1=CC=C(C=C1)C(=O)CN2C3=C(CCCC3)SC2=N [Pifithrin_alpha] + O=C(CCCCCCC(=O)Nc1ccccc1)NO [Vorinostat] (partner 1 µM)
Summary of the method: (§1)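 Relative viability was taken as the ratio of nuclei in treated wells to nuclei in vehicle wells. Lung cancer cell lines in 1536-well plates received compounds by pin tool one day after seeding, either one drug alone or a fixed anchor-drug dose plus five library-drug doses (not always all listed) in √10 steps. Nuclei were counted on 4× images after 5 days of treatment, and values are medians of duplicate plates.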

Axitinib + Vorinostat = compound: CNC(=O)c1ccccc1Sc1ccc2c(/C=C/c3ccccn3)n[nH]c2c1 [Axitinib] + O=C(CCCCCCC(=O)Nc1ccccc1)NO [Vorinostat] (partner 1 µM)
Summary of the method: as §1

[2] = compound: CC1=CC=C(C=C1)C(=O)CN2C3=C(CCCC3)SC2=N [Pifithrin_alpha] + CC1(C)CCC(c2ccc(Cl)cc2)=C(CN2CCN(c3ccc(C(=O)NS(=O)(=O)c4ccc(N[C@H](CCN5CCOCC5)CSc5ccccc5)c(S(=O)(=O)C(F)(F)F)c4)cc3)CC2)C1 [Navitoclax] (partner 0.5 µM)
Summary of the method: as §1

Row | Cell Line | relative viability ([1]; first compound 1 µM) | relative viability ([1]; first compound 3.162 µM) | relative viability ([1]; first compound 10 µM) | relative viability ([1]; first compound 31.62 µM) | relative viability ([1]; first compound 100 µM) | relative viability (Axitinib + Vorinostat; first compound 0.005 µM) | relative viability (Axitinib + Vorinostat; first compound 0.01581 µM) | relative viability (Axitinib + Vorinostat; first compound 0.05 µM) | relative viability (Axitinib + Vorinostat; first compound 0.1581 µM) | relative viability (Axitinib + Vorinostat; first compound 0.5 µM) | relative viability ([2]; first compound 1 µM) | relative viability ([2]; first compound 3.162 µM) | relative viability ([2]; first compound 10 µM) | relative viability ([2]; first compound 31.62 µM) | relative viability ([2]; first compound 100 µM)
1 | 201T | 0.529 | 0.948 | 0.757 | 0.666 | 0.711 | 0.995 | 0.946 | 0.969 | 0.9 | 0.951 | 1.18 | 1.19 | 1.15 | 1.04 | 1.05
2 | A549 |  |  |  |  |  |  |  |  |  |  | 1.37 | 1.26 | 1.14 | 0.985 | 1.29
3 | A-427 | 0.827 | 0.83 | 0.807 | 0.762 | 0.728 | 0.909 | 0.929 | 0.864 | 0.903 | 0.956 | 0.803 | 0.843 | 0.79 | 0.773 | 0.933
4 | ABC-1 |  | 1.25 | 0.844 | 0.622 | 0.765 | 1.15 |  | 1.13 | 1.47 | 1.34 |  |  |  |  | 
5 | BEN | 0.448 | 0.564 | 0.617 | 0.555 | 0.571 | 0.609 | 0.637 | 0.635 | 0.592 | 0.551 | 0.0519 | 0.0641 | 0.0597 | 0.0612 | 0.0656
6 | CAL-12T | 0.699 | 0.73 | 0.706 |  | 0.651 | 0.869 | 0.72 | 0.686 | 0.737 | 1.12 |  | 1.22 | 1.16 | 0.686 | 1.15
7 | COR-L23 | 0.42 | 0.349 | 0.361 |  | 0.344 | 0.516 | 0.478 | 0.502 | 0.452 | 0.586 | 1.09 | 1.09 | 0.974 |  | 1.19
8 | COR-L 105 | 0.844 | 0.665 | 0.699 | 0.608 | 0.633 | 0.958 | 0.794 | 0.874 | 0.825 | 0.818 | 0.65 | 0.663 | 0.722 | 0.63 | 0.626
9 | Calu-6 |  |  |  |  |  |  |  |  |  |  | 0.976 | 0.741 | 0.781 | 0.508 | 0.704
10 | ChaGo-K-1 | 0.574 | 0.836 | 0.788 | 0.524 | 0.771 | 0.727 | 0.754 | 0.797 | 0.746 | 0.737 | 0.873 | 0.999 | 0.888 | 0.734 | 0.891
11 | EBC-1 |  |  |  |  |  |  |  |  |  |  | 0.386 | 0.318 | 0.29 | 0.221 | 0.224
12 | EKVX |  | 0.597 | 0.549 | 0.636 | 0.572 | 0.804 | 0.687 | 0.797 | 0.686 | 0.805 | 0.936 | 0.886 | 0.738 | 0.645 | 0.595
13 | EMC-BAC-2 |  | 0.413 |  | 0.328 | 0.413 | 0.469 | 0.371 | 0.528 | 0.445 | 0.438 | 1.22 | 1.29 | 1.17 | 0.933 | 1.31
14 | EPLC-272H | 0.472 | 0.419 | 0.244 | 0.177 | 0.27 | 0.341 | 0.359 | 0.498 | 0.481 | 0.459 |  | 0.978 | 1.02 | 0.894 | 1.25
15 | H3255 | 0.682 | 0.818 | 0.788 | 0.497 | 0.703 | 0.806 |  | 0.927 | 0.844 | 0.796 | 0.376 | 0.428 | 0.444 | 0.434 | 0.497
16 | HARA |  | 0.558 | 0.674 | 0.468 | 0.513 | 0.533 | 0.559 | 0.526 |  | 0.655 | 1.17 | 1.22 | 1.17 | 0.767 | 0.945
17 | HCC-15 | 0.871 | 0.833 | 0.8 | 0.676 | 0.646 | 0.992 | 0.91 | 0.837 | 0.743 | 0.823 | 0.681 | 0.697 | 0.524 | 0.441 | 0.525
18 | HCC-44 | 1.04 | 0.924 | 0.91 | 0.834 | 0.902 | 1.04 | 1.15 | 1.11 | 1.09 | 1.13 | 0.8 | 0.899 | 0.795 | 0.701 | 0.801
19 | HCC-78 |  | 0.506 | 0.519 | 0.407 | 0.467 | 0.437 | 0.407 | 0.333 | 0.348 | 0.404 | 0.752 | 0.768 | 0.623 |  | 0.783
20 | HCC-366 | 0.252 | 0.204 | 0.171 |  | 0.209 | 0.666 | 0.414 | 0.447 | 0.333 | 0.395 | 1.12 | 1.11 | 0.886 |  | 0.925
21 | HCC-827 | 0.156 | 0.894 | 0.765 | 0.709 | 0.787 | 0.809 | 0.505 | 0.863 | 0.746 | 0.925 | 1.02 | 0.917 | 0.849 | 0.672 | 0.694
22 | HOP-62 | 0.436 | 0.603 | 0.645 | 0.375 | 0.658 | 0.713 | 0.686 | 0.585 | 0.696 | 0.76 | 0.908 | 1.09 | 1.06 | 0.751 | 1.07
23 | IA-LM |  | 1.16 |  | 0.913 | 0.907 | 1.02 | 1.02 | 0.974 | 0.934 | 0.973 | 0.747 | 0.339 | 0.259 | 0.275 | 0.262
24 | LC-2-ad | 0.692 | 0.719 | 0.689 | 0.465 | 0.521 | 0.67 | 0.722 | 0.736 | 0.713 | 0.685 | 0.462 | 0.323 | 0.408 | 0.249 | 0.32
25 | LCLC-97TM1 |  | 0.857 | 0.852 |  | 0.726 | 0.889 | 0.734 | 0.756 | 0.804 | 0.766 |  | 0.548 | 0.513 |  | 0.425
26 | LCLC-103H | 0.565 | 0.884 | 0.782 | 0.733 | 0.761 | 0.767 | 0.801 | 0.808 | 0.75 | 0.759 |  |  |  |  | 
